Target: T1, PAD1 (Homo sapiens, UniProt Q9ULC6)
T1 construct: made in house
T1 sequence (Q9ULC6 1-663): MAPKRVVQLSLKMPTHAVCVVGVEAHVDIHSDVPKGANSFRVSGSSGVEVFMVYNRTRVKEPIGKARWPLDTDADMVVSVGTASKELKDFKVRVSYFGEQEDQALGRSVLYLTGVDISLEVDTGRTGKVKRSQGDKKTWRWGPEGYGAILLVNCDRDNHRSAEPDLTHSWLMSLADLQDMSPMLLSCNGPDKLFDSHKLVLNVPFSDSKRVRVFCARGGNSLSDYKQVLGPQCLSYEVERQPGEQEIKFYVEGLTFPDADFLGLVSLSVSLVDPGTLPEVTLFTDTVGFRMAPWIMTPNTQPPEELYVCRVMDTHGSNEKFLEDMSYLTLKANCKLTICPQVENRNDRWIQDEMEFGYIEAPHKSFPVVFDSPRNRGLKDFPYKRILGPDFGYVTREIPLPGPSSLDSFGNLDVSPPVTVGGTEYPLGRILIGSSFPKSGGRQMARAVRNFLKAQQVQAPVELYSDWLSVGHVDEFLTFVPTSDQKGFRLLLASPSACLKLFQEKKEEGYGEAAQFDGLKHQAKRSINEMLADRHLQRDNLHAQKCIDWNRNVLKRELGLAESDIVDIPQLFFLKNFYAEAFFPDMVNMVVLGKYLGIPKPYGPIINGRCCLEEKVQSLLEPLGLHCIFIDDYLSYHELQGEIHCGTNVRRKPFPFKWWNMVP
Experiment: Streptavidin enrichment and ReDiMe proteomics of proteins labelled by probe in HEK293TPAD1 cells (PAD1)
Assay type: cell-based
Settings: 5 μM probe versus control
Description: Enrichment of Proteins Labelled by 21 in HEK293TPAD1 Cells on Streptavidin-agarose. HEK293TPAD1 cells were cultured in 175 cm^2 T-175 flasks in DMEM (supplemented with 10% heat-inactivated fetal bovine serum, 100 units/mL penicillin, 100 μg/mL streptomycin and 0.15 mg/mL hygromycin B). Upon reaching ˜90% confluence, cells were treated with 1 mM CaCl2, 5 μM ionomycin and 5 μM of 21 (or equal volume of DMSO for control) in serum-free DMEM for 3 h. Then the cells were scraped, harvested by centrifugation at 3,000 rpm for 5 min and resuspended in 1×PBS. Cell lysis was performed by probe sonication and soluble proteins in the lysates were quantified by DC Assay (Bio-Rad). Endogenous biotinylated proteins were precleared by incubating the lysates with streptavidin-agarose beads (25 μL for 1 mg of total protein in the lysate) at room temperature for 1 h with constant mixing on an end-over-end shaker. The mixture was centrifuged (1200 g, 3 minute) to separate the beads and the supernatant (pre-cleared lysate). Pre-cleared lysates (2 mg/mL, 500 μL final) were clicked with Biotin-N3 (100 μM), TCEP (1.5 mM), TBTA (0.3 mM) and freshly prepared CuSO4 (4 mM), and the tubes were gently tumbled at room temperature for 2 h. The precipitated proteins were collected by centrifugation at 5,000 rpm for 10 min. […]

Enrichment ratio (heavy/light) of PAD1: ~20
Structure (SMILES): C#Cc1c(I)cc(C(=O)N[C@@H](CCCNC(=N)CF)c2nc3ccccc3[nH]2)c(O)c1I [Compound 21]
